Laboratory results taken from US20240251787A1, “AGROCHEMICAL COMPOSITION, AGROCHEMICAL FORMULATION, USE OF A DIOXABICYCLOALKANE DERIVATIVE, AND, METHOD FOR THE TREATMENT AND/OR PREVENTION OF DISEASES OR PESTS IN A PLANT OR PLANT SEED” (Oxiteno S.A. Indústria e Comércio, priority 2021, published 2024).
Where two headings read alike, the source gives them in different places.

Tests used:
[1] = Solvency: maximum amount of active ingredient solubilized per liter of solvent; conditions: for Solvency in N-methylpyrrolidone (NMP): solvent N-methylpyrrolidone (NMP); for Solvency in γ-butyrolactone: solvent γ-butyrolactone
Description: The above compositions were prepared at a temperature of about 50° ° C. stirred with a vortex mixer until visual inspection indicated the absence of solids, confirming solubilization of the active ingredient in the solvent.

[2] = Crystallization test of azoxystrobin solution upon dilution in water; format: physicochemical; conditions: azoxystrobin solution (100 g/L) in the solvent diluted 1:20 in water
Description: The active ingredient azoxystrobin was chosen to carry out an additional test of crystallization of the active ingredient upon dilution in water. […] Among the solvents chosen for evaluation are the solvents dihydrolevoglucosenone, γ-butyrolactone, N-methylpyrrolidone, and triacetin.

[3] = test system: Euphorbia pulcherrima (Euphorbiaceae), Poinsettia
Description: Phytotoxicity data were generated in tests on Poinsettia (red leaves plant), since this leaf is sensitive to damage caused by chemical agents, which makes it possible to verify and compare the tested solvents.

[4] = 1-octanol/water; cited from earlier work
[5] = safety data sheet class; cited from earlier work
[6] = Euphorbia pulcherrima (Poinsettia), in vivo, 24 h

Compound | Solvency in N-methylpyrrolidone (NMP) [1] | Solvency in γ-butyrolactone [1] | Observation by dilution [2] | Eye irritation [5] | other results
CO/C=C(/C(=O)OC)c1ccccc1Oc1cc(Oc2ccccc2C#N)ncn1 [Azoxystrobin] | 900 g/L | 800 g/L | – | – | –
CS(=O)(=O)c1ccc(C(=O)C2C(=O)CCCC2=O)c([N+](=O)[O-])c1 [Mesotrione] | 400 g/L | 300 g/L | – | – | –
CN1CCCC1=O [NMP, N-methylpyrrolidone] | – | – | Immediate | 2A | Phytotoxicity (damage %) [3, 6]: 42%; logP [4]: −0.40; Reproductive system tox. [5]: 1B; Respiratory tox. [5]: 3; Skin irritation [5]: 2
OC(Cc1ccccc1Cl)(Cn1nc[nH]c1=S)C1(Cl)CC1 (centres unmarked) [Prothioconazole] | 1100 g/L | 900 g/L | – | – | –
CC(=O)OCC(COC(C)=O)OC(C)=O [Triacetin] | – | – | Two-phase | – | –
O=C1CCC2COC1O2 (centres unmarked) [dihydrolevoglucosenone, 6,8-dioxabicyclo[3.2.1]octan-4-one] | – | – | Two-phase | 2A | Phytotoxicity (damage %) [3, 6]: 6%; logP [4]: −1.52
O=C1CCCO1 [γ-butyrolactone] | – | – | Immediate | 1 | Phytotoxicity (damage %) ([3]; damage observed in each Poinsettia leaf after 24 h of exposure): 27%; Aquatic environment tox. [5]: 3; Central nervous system tox. [5]: 3
